Experimental data from patent US6900216B2, “Dihydroimidazo[2,1-b]thiazole and dihydro-5h-thiazolo[3,2-A]pyrimidines as antidepressant agents” (Knoll GmbH, priority 2000, dated 2005).
pKi: −log10 of the molar value.

Target: T1, noradrenaline (NA) reuptake sites (Rattus norvegicus, UniProt Q63380)
T1 construct: Frontal cortical tissue from the brains of male Charles River rats; from tissue; host or cells: rat frontal cortical membranes
Experiment: NA uptake: displacement of [3H]nisoxetine from noradrenaline reuptake sites, rat frontal cortical membranes
Assay type: binding
Conditions: 10^−6 M test compound, single determination, [3H]nisoxetine; read-out: NA uptake % displacement at 10^−6 M
Protocol: Frontal cortical tissue from the brains of male Charles River rats weighing 150-250 g was homogenised in ice-cold 50 mM Tris-HCl, pH 7.4 (at 25° C.) containing 120 mM sodium chloride and 5 mM potassium chloride (Tris buffer; 1:60 w/v) using a Kinematic polytron (speed setting 6 for 10 seconds) and centrifuged at 40,000 g for 10 minutes. The supernatant was discarded and the pellet rehomogenised in Tris buffer, 1:60 w/v, and centrifuged at 40,000 g for 10 minutes. This step was repeated twice more so that, in total, the brain tissue was homogenised and centrifuged four times. The final pellet was resuspended in 50 mM Tris-HCl, pH 7.4 containing 300 mM sodium chloride and 5 mM potassium chloride (equivalent to 18.75 mg wet weight of tissue/ml) and used immediately in the binding assay. All centrifugations were performed at 4° C.
Membranes (400 μl; equivalent to 7.5 mg wet weight of tissue/tube) were incubated with 50 μl [^3H]nisoxetine at a single concentration of 0.6 nM and 50 μl of distilled water (total binding) or 50 μl^− of test compound (at a single concentration 10^−6M or at 10 concentrations ranging from 10^−11-10^−3 M) or 50 μl of mazindol (1 μM; non-specific binding) for 4 h at 4° C. Membrane bound radioactivity was recovered by filtration under vacuum through Skatron 11734 filters using a Skatron cell harvester. Filters were rapidly washed with ice-cold 50 mM Tris-HCl, pH 7.4 containing 120 mM sodium chloride and 5 mM potassium chloride (wash setting 9,9,0). The scored filter paper discs were punched out into vials, scintillation fluid added and radioactivity determined by liquid scintillation counting.
For each of these tests measuring the ability of compounds of Formula I to displace standard ligands from 5-HT1A receptors and 5-hydroxytryptamine (5-HT) and noradrenaline (NA) reuptake sites and muscarinic receptors in vitro, the percentage displacement of specific binding of tritiated ligand by 10^−6 M test compound was calculated in the following way.
Firstly, specific binding of tritiated ligand in the absence (A) and presence (B) of test compound was determined:
In the absence of compound: A(dpm)=Total binding (dpm)−Non-specific binding (dpm) In the presence of compound (10^−6 M): B(dpm)=Binding at 10^−6M (dpm)−Non-specific binding (dpm)
The specific binding of tritiated ligand in the presence (B) of compound was then converted to a percentage of specific binding of tritiated ligand in the absence (A) of compound: % Specific binding at 10^−6 M=B(dpm)/A(dpm)×100
The percentage displacement of specific binding of tritiated ligand by the test compound (10^−6 M) was then obtained by subtraction of the percentage specific binding in the presence of compound from the percentage specific binding in the absence of compound, which is taken as the maximum binding and so equals 100%:
% Displacement at 10^−6 M=100−% Specific binding at 10^−6 M.
In some cases, displacement curves were then produced for compounds which displaced ≧50% of specific binding of the tritiated ligand at 10^−6 M using a range of concentrations of the compound. The Ki was then calculated by simultaneous fitting using equations derived from the Feldman equations by robust non-linear regression to data from three experiments simultaneously (De Lean et al., 1978; Munson and Rodbard, 1980; Feldman, 1992). Munson P J and Rodbard D. Ligand: a versatile computerised approach for characterisation of ligand binding systems. Anal Biochem 1980; 107: 220. Feldman HA. Mathematical theory of complex ligand binding systems at equilibrium: some methods for parameter fitting. Anal Biochem 1992: 48, 317. De Lean A, Munson P J and Rodbard D. Simultaneous analysis of families of sigmoidal curves: application to bioassay, radioligand assay, and physiological dose-response curves. Am J Physiol 1978: 235 (2), E97-E102. […]

T1 sequence (Q63380 1-617): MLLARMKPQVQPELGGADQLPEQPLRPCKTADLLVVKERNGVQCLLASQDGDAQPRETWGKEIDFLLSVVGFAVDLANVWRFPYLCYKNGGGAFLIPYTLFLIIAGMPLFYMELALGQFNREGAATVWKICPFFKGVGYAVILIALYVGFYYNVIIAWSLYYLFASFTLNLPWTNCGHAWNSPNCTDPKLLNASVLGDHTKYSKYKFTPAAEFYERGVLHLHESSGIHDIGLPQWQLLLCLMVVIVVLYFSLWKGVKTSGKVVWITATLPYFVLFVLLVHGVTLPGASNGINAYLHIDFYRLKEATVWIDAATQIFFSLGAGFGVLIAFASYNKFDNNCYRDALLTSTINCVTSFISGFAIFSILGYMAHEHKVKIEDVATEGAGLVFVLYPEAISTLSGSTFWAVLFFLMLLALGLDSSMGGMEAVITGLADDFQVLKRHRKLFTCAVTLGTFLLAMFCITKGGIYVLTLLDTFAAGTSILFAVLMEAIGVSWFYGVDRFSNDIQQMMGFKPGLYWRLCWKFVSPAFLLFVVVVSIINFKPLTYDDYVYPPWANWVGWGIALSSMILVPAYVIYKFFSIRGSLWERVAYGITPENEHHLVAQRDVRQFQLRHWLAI

Row | Structure (SMILES) | inhibition at 1 µM [%]
1 | CSC1=C(c2ccc3sccc3c2)N2CCN=C2S1 [Example 30, 3-(benzo[b]thiophen-5-yl)-2-(methylthio)-5,6-dihydroimidazo[2,1-b]thiazole] | 101

Same assay, conditions: [3H]nisoxetine 0.6 nM, rat frontal cortical membranes; fit to data from three experiments

Row | Structure (SMILES) | pKi
2 | Br.c1cc(C2=C(C3CC3)SC3=NCCN32)c2ccsc2c1 [Example 34, 3-(benzo[b]thiophen-4-yl)-2-cyclopropyl-5,6-dihydroimidazo[2,1-b]thiazole hydrobromide] | 8.70
3 | CC1=C(c2cccc3sccc23)N2CCN=C2S1.Cl [Example 9, 3-(benzo[b]thiophen-4-yl)-2-methyl-5,6-dihydroimidazo[2,1-b]thiazole hydrochloride] | 8.23
4 | Br.CC1=C(c2ccc(F)c3sccc23)N2CCN=C2S1 [Example 38, 3-(7-fluorobenzo[b]thiophen-4-yl)-2-methyl-5,6-dihydroimidazo[2,1-b]thiazole hydrobromide] | 8.92
5 | Br.CC1=C(c2cc3ccccc3s2)N2CCN=C2S1 [Example 6, 3-(benzo[b]thiophen-2-yl)-2-methyl-5,6-dihydroimidazo[2,1-b]thiazole hydrobromide] | 7.68
6 | CCC1=C(c2cccc3sccc23)N2CCN=C2S1.O=C(O)/C=C/C(=O)O [Example 25, 3-(benzo[b]thiophen-4-yl)-2-ethyl-5,6-dihydroimidazo[2,1-b]thiazole fumarate] | 8.27
7 | CC(C)C1=C(c2ccc3sccc3c2)N2CCN=C2S1 [Example 29, 3-(benzo[b]thiophen-5-yl)-2-(1-methylethyl)-5,6-dihydroimidazo[2,1-b]-thiazole] | 8.43
8 | Br.CCC1=C(c2cc3c(Cl)cccc3s2)N2CCN=C2S1 [Example 18, 3-(4-chlorobenzo[b]thiophen-2-yl)-2-ethyl-5,6-dihydroimidazo[2,1-b]thiazole hydrobromide] | 7.53
9 | Br.CCC1=C(c2cccc3sccc23)N2CCN=C2S1 [Example 13, 3-(benzo[b]thiophen-4-yl)-2-ethyl-5,6-dihydroimidazo[2,1-b]thiazole hydrobromide] | 8.44
10 | CC(C)C1=C(c2cccc3sccc23)N2CCN=C2S1.O=C(O)/C=C/C(=O)O [Example 35, 3-(benzo[b]thiophen-4-yl)-2-(1-methylethyl)-5,6-dihydroimidazo[2,1-b]thiazole fumarate] | 8.26
11 | OCC1=C(c2ccc3sccc3c2)N2CCN=C2S1 [Example 28, [3-(benzo[b]thiophen-5-yl)-5,6-dihydroimidazo[2,1-b]-thiazol-2-yl]methanol] | 8.27
12 | Br.CC1=C(c2cc3c(Cl)cccc3s2)N2CCN=C2S1 [Example 10, 3-(4-chlorobenzo[b]thiophen-2-yl)-2-methyl-5,6-dihydroimidazo[2,1-b]thiazole hydrobromide] | 7.16
13 | CC1=C(c2cccc3ccsc23)N2CCN=C2S1.Cl [Example 23, 3-(benzo[b]thiophen-7-yl)-2-methyl-5,6-dihydroimidazo[2,1-b]thiazole hydrochloride] | 8.40
14 | Br.C=CCC1=C(c2cccc3sccc23)N2CCN=C2S1 [Example 36, 2-allyl-3-(benzo[b]thiophen-4-yl)-5,6-dihydroimidazo[2,1-b]thiazole hydrobromide] | 8.77
15 | Br.CC1=C(c2ccc3sccc3c2)N2CCN=C2S1 [Example 21, 3-(benzo[b]thiophen-5-yl)-2-methyl-5,6-dihydroimidazo[2,1-b]thiazole hydrobromide] | 8.26
16 | CSC1=C(c2cccc3sccc23)N2CCN=C2S1.Cl [Example 22, 3-(benzo[b]thiophen-4-yl)-2-(methylthio)-5,6-dihydroimidazo[2,1-b]thiazole hydrochloride] | 8.82
17 | Br.CC1=C(c2cccc3sccc23)N2CCN=C2S1 [Example 8, 3-(benzo[b]thiophen-4-yl)-2-methyl-5,6-dihydroimidazo[2,1-b]thiazole hydrobromide] | 8.21
18 | Br.CC1=C(c2cc3c(F)cccc3s2)N2CCN=C2S1 [Example 7, 3-(4-fluorobenzo[b]thiophen-2-yl)-2-methyl-5,6-dihydroimidazo[2,1-b]thiazole hydrobromide] | 8.02
19 | OCC1=C(c2cc3c(Cl)cccc3s2)N2CCN=C2S1 [Example 4, [3-(4-chlorobenzo[b]thiophen-2-yl)-5,6-dihydroimidazo[2,1-b]thiazol-2-yl]methanol] | 7.60
20 | OCC1=C(c2cccc3sccc23)N2CCN=C2S1 [Example 3, [3-(benzo[b]thiophen-4-yl)-5,6-dihydroimidazo[2,1-b]thiazol-2-yl]methanol] | 8.54
21 | C1=C(c2cccc3sccc23)N2CCN=C2S1.Cl [Example 2, 3-(benzo[b]thiophen-4-yl)-5,6-dihydroimidazo[2,1-b]thiazole hydrochloride] | 8.04
22 | CCC1=C(c2ccc3sccc3c2)N2CCN=C2S1.O=C(O)/C=C/C(=O)O [Example 31, 3-(benzo[b]thiophen-5-yl)-2-ethyl-5,6-dihydroimidazo[2,1-b]thiazole fumarate] | 8.37
23 | CSC1=C(c2cc3ccccc3s2)N2CCN=C2S1 [Example 19, 3-(benzo[b]thiophen-2-yl)-2-(methylthio)-5,6-dihydroimidazo[2,1-b]thiazole] | 8.28

Same assay, conditions: read-out: NA uptake % displacement at 10^−6 M

Row | Structure (SMILES) | inhibition at 1 µM [%]
24 | Cc1cccc2sc(C3=CSC4=NCCN34)cc12.Cl [Example 14, 3-(4-methylbenzo[b]thiophen-2-yl)-5,6-dihydroimidazo[2,1-b]thiazole hydrochloride] | 87
25 | C=CC1=C(c2cccc3sccc23)N2CCN=C2S1.Cl [Example 39, 3-(benzo[b]thiophen-4-yl)-2-vinyl-5,6-dihydroimidazo[2,1-b]thiazole hydrochloride] | 100
26 | Br.CC1=C(c2cc3c(C)cccc3s2)N2CCN=C2S1 [Example 16, 2-methyl-3-(4-methylbenzo[b]thiophen-2-yl)-5,6-dihydroimidazo[2,1-b]thiazole hydrobromide] | 83
27 | Br.CC1=C(c2cc3c(Cl)c(Cl)ccc3s2)N2CCN=C2S1 [Example 24, 3-(4,5-dichlorobenzo[b]thiophen-2-yl)-2-methyl-5,6-dihydroimidazo[2,1-b]-thiazole hydrobromide] | 39
28 | Br.CC1=C(c2cc3cccc(Cl)c3s2)N2CCN=C2S1 [Example 20, 3-(7-chlorobenzo[b]thiophen-2-yl)-2-methyl-5,6-dihydroimidazo[2,1-b]thiazole hydrobromide] | 47
29 | Br.CCC1=C(c2cc3cc(Cl)ccc3s2)N2CCN=C2S1 [Example 11, 3-(5-chlorobenzo[b]thiophen-2-yl)-2-ethyl-5,6-dihydroimidazo[2,1-b]thiazole hydrobromide] | 92
30 | CC1=C(c2cccc3sc(C)cc23)N2CCN=C2S1.Cl [Example 33, 2-methyl-3-(2-methylbenzo[b]thiophen-4-yl)-5,6-dihydroimidazo[2,1-b]thiazole hydrochloride] | 84
31 | Br.CC1=C(c2cc3c(Cl)cccc3s2)N2CCCN=C2S1 [Example 17, 3-(4-chlorobenzo[b]thiophen-2-yl)-2-methyl-6,7-dihydro-5H-thiazolo[3,2-a]pyrimidine hydrobromide] | 84
32 | Br.CC1(c2cc3cc(F)ccc3s2)CSC2=NCCN21 (stereo not drawn) [Example 27, 3-(5-fluorobenzo[b]thiophen-2-yl)-3-methyl-5,6-dihydroimidazo[2,1-b]thiazole hydrobromide] | 72
33 | Br.Clc1cccc2sc(C3=CSC4=NCCN34)cc12 [Example 1, 3-(4-chlorobenzo[b]thiophen-2-yl)-5,6-dihydroimidazo[2,1-b]thiazole hydrobromide] | 103
